Laboratory results taken from patent US20030176508A1, “Ferulic acid ethyl-guaiacol or vinyl-guaiacol as preservative combination in cosmetic compositions” (priority 2000, published 2003).

Columns and labels:
Format in all cases: cell-based
Bacteria Pool [1] = experiment: Challenge test of hand lotion with bacteria pool; set-up: key to Bacterial Growth Rating 1 day / Bacterial Growth Rating 1 wk / Bacterial Growth Rating 3 wk: 1: 0 (No Growth); 2: 1-4; 3: 5-10; 4: 11-25; 26-50; 6: 51-100; 7: 101-200; 8: 201-300; 9: (TNTC) too numerous to count; 10: (TNTC) solid m; settings: 1000 ppm of each compound; for Bacterial Growth Rating 1 wk: streaked 1 week after inoculation; for Bacterial Growth Rating 2 wk: streaked 2 weeks after inoculation; for Bacterial Growth Rating 3 wk: streaked 3 weeks after inoculation; for Bacterial Growth Rating 1 day: streaked 1 day after inoculation; for Bacterial Growth Rating 2 day: streaked 2 days after inoculation
Experimental: (§1) The samples were tested by the challenge test described below. In this challenge test, samples were stored at room temperatures, inoculated at zero days and streaked at 0 days, 1 day, 2 days, 1 week, 2 weeks and 3 weeks. […] Twenty-five grams of sample are weighed out in one-ounce glass jars. […] Biocide was dissolved into solution before use and different concentrations are prepared by adding the appropriate amount of the biocide solution to the samples. […] A negative control is included using a sample without any biocide. 4. The bacteria pool inoculum is made fresh on the day of inoculation by using equal volumes of the 24 hour cultures of the ATCC bacteria grown individually in nutrient broth at 30° C. […] 5. Before inoculation, samples are streaked on TSA (tryptic soy agar) plates with sterile cotton swabs. The plates are incubated at 30° C. for 48 hours and then read using a bacterial colony counter and rated for microbial growth according to the Growth Rating Chart. […] Samples are inoculated with 0.05 mL (for 25 g samples) of the […]. […] Immediately after inoculation, samples are streaked with sterile cotton swabs on TSA plates. The plates are then incubated at 30° C. for 48 hours. The samples are incubated at room temperature. 8. Samples are streaked again at 1 day, 2 days, 1 week, 2 weeks and 3 weeks. […] All plates are incubated 48 hours at 30° C. then read and rated according to the Growth Rating Chart. […] Samples are kept at room temperature.

[2] = test system: Aspergillus niger ATCC #16404; experiment: Challenge test of hand lotion with A. niger and S. cerevisiae (A. niger rating); settings: 1000 ppm of each compound, A. niger (first figure of cell); for Bacterial Growth Rating 1 wk: 1 week; for Bacterial Growth Rating 2 wk: 2 weeks; for Bacterial Growth Rating 3 wk: 3 weeks; for Bacterial Growth Rating 2 day: 2 days
Experimental: (§2) The samples were tested by the challenge test described below. In this challenge test, samples were stored at room temperatures, inoculated at zero days and streaked at 0 days, 1 day, 2 days, 1 week, 2 weeks and 3 weeks. […] Twenty-five grams of sample are weighed out in one-ounce glass jars. […] Biocide is dissolved into solution before use and different concentrations are prepared by adding the appropriate amount of the biocide solution to the samples. […] A negative control is included using a sample without any biocide. […] Before inoculation, samples are streaked on MYA (malt yeast agar) plates with sterile cotton swabs. The plates are incubated at 30° C. for 48 hours and then read using a bacterial colony counter and rated for microbial growth according to the Growth Rating Chart. […] 5. The inoculum is prepared by adding 9.9 mL sterile 0.85% saline solution to a pure culture slant grown on MYA. A cotton-tipped swab is used to gently rub the surface of the slant to free the cells. […] The yeast and fungus used are: [table] […] Samples are inoculated with 0.05 mL (for 25 g samples) of the An suspension and 0.05 mL of the Sc suspension. 7. Immediately after inoculation, samples are streaked with sterile cotton swabs on MYA plates. The plates are then incubated at 30° C. for 48 hours. The samples are incubated at room temperature. 8. Samples are streaked again at 1 day, 2 days, 1 week, 2 weeks and 3 weeks. 9. All plates are incubated 48 hours at 30° C. then read and rated according to the Growth Rating Chart. Samples are kept at room temperature.

[3] = test system: Saccharomyces cerevisiae #4105; experiment: Challenge test of hand lotion with A. niger and S. cerevisiae (S. cerevisiae rating); settings: 1000 ppm of each compound, S. cerevisiae (second figure of cell); for Bacterial Growth Rating 1 wk: 1 week; for Bacterial Growth Rating 2 wk: 2 weeks; for Bacterial Growth Rating 3 wk: 3 weeks; for Bacterial Growth Rating 2 day: 2 days
Experimental: as §2

Bacteria Pool [4] = experiment: Challenge test of shampoo with bacteria pool; set-up: key: 1: 0 (No Growth); 2: 1-4; 3: 5-10; 4: 11-25; 26-50; 6: 51-100; 7: 101-200; 8: 201-300; 9: (TNTC) too numerous to count; 10: (TNTC) solid m; settings: 1000 ppm of each compound; for Bacterial Growth Rating 1 wk: streaked 1 week after inoculation; for Bacterial Growth Rating 2 wk: streaked 2 weeks after inoculation; for Bacterial Growth Rating 3 wk: streaked 3 weeks after inoculation; for Bacterial Growth Rating 1 day: streaked 1 day after inoculation; for Bacterial Growth Rating 2 day: streaked 2 days after inoculation
Experimental: as §1

Compound	Bacterial Growth Rating 1 wk (Bacteria Pool [1])	Bacterial Growth Rating 2 wk (Bacteria Pool [1])	Bacterial Growth Rating 3 wk (Bacteria Pool [1])	Bacterial Growth Rating 1 day (Bacteria Pool [1])	Bacterial Growth Rating 2 day (Bacteria Pool [1])	Bacterial Growth Rating 1 wk [2]	Bacterial Growth Rating 2 wk [2]	Bacterial Growth Rating 3 wk [2]	Bacterial Growth Rating 1 day [2]	Bacterial Growth Rating 2 day [2]	Bacterial Growth Rating 1 wk [3]	Bacterial Growth Rating 2 wk [3]	Bacterial Growth Rating 3 wk [3]	Bacterial Growth Rating 1 day [3]	Bacterial Growth Rating 2 day [3]	Bacterial Growth Rating 1 wk (Bacteria Pool [4])	Bacterial Growth Rating 2 wk (Bacteria Pool [4])	Bacterial Growth Rating 3 wk (Bacteria Pool [4])	Bacterial Growth Rating 1 day (Bacteria Pool [4])	Bacterial Growth Rating 2 day (Bacteria Pool [4])
CCc1ccc(O)c(OC)c1 [ethylguaiacol, 4-ethyl-2-methoxyphenol]	5 (26-50)	4 (11-25)	1 (0 (No Growth))	9	6 (51-100)	3 (5-10)	2/2 (1-4)	3/3 (5-10)	4/4 (11-25)	3 (5-10)	4 (11-25)	2/2 (1-4)	3/3 (5-10)	4/4 (11-25)	4 (11-25)	9	9	9	9	9
COc1cc(C=CC(=O)O)ccc1O [ferulic acid, 4-hydroxy-3-methoxycinnamic acid]	9	6 (51-100)	9	7 (101-200)	6 (51-100)	3/3 (5-10)	4 (11-25)	3 (5-10)	4 (11-25)	4 (11-25)	3/3 (5-10)	3 (5-10)	4 (11-25)	6 (51-100)	6 (51-100)	9	9	9	9	9
C=Cc1ccc(O)c(OC)c1 [vinylguaiacol, 4-hydroxy-3-methoxystyrene]	4 (11-25)	3 (5-10)	1 (0 (No Growth))	4 (11-25)	3 (5-10)	1 (0 (No Growth))	1 (0 (No Growth))	1 (0 (No Growth))	3 (5-10)	1 (0 (No Growth))	2 (1-4)	1 (0 (No Growth))	1 (0 (No Growth))	2 (1-4)	3 (5-10)	8 (201-300)	9	9	9	9
